Assays:
[1] = Extraction of mined oil sands with solvents (bitumen recovery); settings: for Recovered Bitumen: not corrected for residual solvent;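 on Recovered Bitumen: Bitumen mass includes 3 to 7 wt% residual solvent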
Protocol: The quality of dimethyl sulfide as an oil recovery agent based on the miscibility of dimethyl sulfide with a crude oil relative to other compounds was evaluated. […] Each oil sands sample was weighed and placed in a cellulose extraction thimble that was placed on a porous polyethylene support disk in a jacketed glass cylinder with a drip rate control valve. Each oil sands sample was then extracted with a selected solvent at a selected temperature (10° C. or 30° C.) in a cyclic contact and drain experiment, where the contact time ranged from 15 to 60 minutes. Fresh contacting solvent was applied and the cyclic extraction repeated until the fluid drained from the apparatus became pale brown in color.
The extracted fluids were stripped of solvent using a rotary evaporator and thereafter vacuum dried to remove residual solvent. […] The residual solids and extraction thimble were air dried, weighed, and then vacuum dried. […] Collectively, the weight of the solid or sample and thimble recovered after extraction plus the quantity of bitumen recovered after extraction divided by the weight of the initial oil sands sample plus the thimble provide the mass closure for the extractions.

[2] = Incremental oil recovery from formation core after water-flooding; settings: after waterflooding with brine
Protocol: Incremental recovery of oil from a formation core using an oil recovery formulation consisting of dimethyl sulfide following oil recovery from the core by water-flooding was measured to evaluate the effectiveness of DMS as a tertiary oil recovery agent.
Two 5.02 cm long Berea sandstone cores with a core diameter of 3.78 cm and a permeability between 925 and 1325 mD were saturated with a brine having a composition as set forth in Table 7.
After saturation of the cores with brine, the brine was displaced by a Middle Eastern Asphaltic crude oil having the characteristics as set forth above in Table 3 to saturate the cores with oil.
Oil was recovered from each oil saturated core by the addition of brine to the core under pressure and by subsequent addition of DMS to the core under pressure. Each core was treated as follows to determine the amount of oil recovered from the core by addition of brine followed by addition of DMS. Oil was initially displaced from the core by addition of brine to the core under pressure. A confining pressure of 1 MPa was applied to the core during addition of the brine, and the flow rate of brine to the core was set at 0.05 ml/min. The core was maintained at a temperature of 50° C. during displacement of oil from the core with brine. […]

[3] = SARA analysis of extracted bitumen samples; settings: bitumen extracted at 30° C.
Protocol: The bitumen samples extracted at 30° C. from each oil sands sample were evaluated by SARA analysis to determine the saturates, aromatics, resins, and asphaltenes composition of the bitumen samples extracted by each solvent.

- oil recovered of the oil remaining in the core after the waterflood [2]: approximately 60%
Structure (SMILES): CSC [Dimethyl Sulfide, dimethyl sulfide]
- recovering bitumen from an oil sand material, compared with the best known fluids ([1]; 10° C. and 30° C.): comparable
- Weight Change ([1]; extraction at 10 C.): 16.9 g
- Recovered Bitumen ([1]; extraction at 10 C.): 16.55 g
- Weight Change ([1]; extraction at 30 C.): 16.7 g
- Recovered Bitumen ([1]; extraction at 30 C.): 16.29 g
- extraction of / miscibility with asphaltenes [3]: excellent miscibility properties
